Data published in article PMC8700061, “Fragment-Sized and Bidentate (Immuno)Proteasome Inhibitors Derived from Cysteine and Threonine Targeting Warheads” (Cells, 2021).
Marks after values point to notes of the source that are not given here.

Tests used:
[1] = target: T1, β5i subunit of human iCP (Homo sapiens, UniProt P20618+P28062); assay: Inhibition of β5i activity (RA at 10 µM, IC50, IC50 shift), Suc-LLVY-AMC; type: biochemical; conditions: for Group efficiency (GE): ΔpIC50/ΔNheavy with compound 1 as reference; for RA (%) at 10 µM, β5i: 10 µM compound, 30 min pre-incubation, SDS activator
T1 construct: purchased Boston Biochem, Inc., Cambridge, MA, USA
Experimental: Residual activity measurements were performed at 10 μM final concentrations in the assay buffer (0.01% SDS, 50 mM Tris-HCl, 0.5 mM EDTA, pH 7.4). Stock solutions of the compounds were prepared in DMSO. To 50 μL of each compound in buffer, 25 μL of 0.8 nM human iCP or human cCP (both from Boston Biochem, Inc., Cambridge, MA, USA) were added. After incubation at 37 °C for 30 min, the reaction was started by adding of 25 μL of 100 μM relevant fluorogenic substrate: acetyl-Nle-Pro-Nle-Asp-AMC (Ac-nLPnLD-AMC, (Bachem, Bubendorf, Switzerland)) for β1, acetyl-Pro-Ala-Leu-7-amino-4-methylcoumarin (Ac-PAL-AMC, (Boston Biochem, Inc., Cambridge, MA, USA)) for β1i, t-butyloxycarbonyl-Leu-Arg-Arg-7-amino-4-methylcoumarin (Boc-LRR-AMC, (Bachem, Bubendorf, Switzerland)) for β2 and β2i, succinyl-Leu-Leu-Val-Tyr-7-amino-4-methylcoumarin (Suc-LLVY-AMC) (Bachem, Bubendorf, Switzerland) for β5 and β5i. Reaction progress was recorded on BioTek Synergy HT microplate reader by monitoring fluorescence at 460 nm (λex = 360 nm) for 90 min at 37 °C. The initial linear ranges were used to calculate velocity and determine residual activity. In the case of evaluation of β1, βi, β2, and β2i activities, the assay buffer was modified by replacing SDS with the proteasomal activator PA28α (Boston Biochem, Inc., Cambridge, MA, USA).
Final assay mixtures contained 0.2 nM human iCP or 0.2 nM human cCP in assay buffer (0.01% SDS (or PA28α in cases of β1, β1i subunits), 50 mM Tris-HCl, 0.5 mM EDTA, pH 7.4). Inhibitors were dissolved in DMSO and added to the black 96-well plates for at least eight different concentrations (the final concentration of DMSO was not more than 1%). […] Fluorescence was monitored at 460 nm (λex = 360 nm) for 90 min at 37 °C. The progress of the reactions was recorded and the initial linear ranges were used to calculate the velocity. IC50 values were calculated using GraphPadPrism (GraphPad Software, San Diego, CA, USA) and are means from at least three independent determinations.

[2] = target: T1, β5i subunit of human iCP; set-up: method as in PMID 33894528; conditions: limited stability of compounds after 1 h in assay buffer; read-out: IC50 (µM) against the β5i subunit of human iCP; cited from earlier work
[3] = target: T2, β5 subunit of human cCP (Homo sapiens, UniProt P20618+P28074); assay: Inhibition of β5 activity (RA, IC50), Suc-LLVY-AMC; type: biochemical
T2 construct: purchased Boston Biochem, Inc., Cambridge, MA, USA

[4] = UV-Vis-based stability assay in buffer; type: physicochemical; conditions: after 1 h, assay buffer pH 7.4, 37 °C, 50 µM
Experimental: The aqueous stability of all compounds was determined spectrophotometrically by following the changes in the absorption spectra of the compounds. The buffer solution (50 mM Tris-HCl, 0.5 mM EDTA, pH 7.4) was pre-incubated at 37 °C. Aliquots of the compounds studied (1 mM in DMSO) were transferred to a 96-well flat-bottom UV-transparent microplate (Corning, CLS3635, Corning Inc, Corning, NY, USA) containing the buffer solution to obtain a 50 μM solution containing 5% DMSO (final volume, 300 μL). The plate was incubated without lid at 37 °C in a plate reader (Synergy H4, BioTek Instruments, Inc., Santa Clara, CA, USA) and the absorbance spectrum (244–400 nm) was acquired in sweep mode after 0, 15, 30, 60, 120, 180, and 240 min using a discontinuous kinetic procedure in Gen5 software (BioTek Instruments, Inc., Santa Clara, CA, USA). The time required to read the entire plate was 3 min. To determine the baseline, the compound solution was replaced with pure DMSO and subtracted from each reading. Compounds with an absorbance maximum of less than 0.20 AU were not evaluated using these assays due to the high experimental error. For other compounds, the relative absorbance difference between the first time point and 60 min at the most responsive wavelength was calculated. If the relative absorbance difference for the compound in the buffer was below 0.1, between 0.1–0.2, and above 0.2, the compound was classified as stable, intermediate, and unstable, respectively.

[5] = HPLC-based stability assay in PBS; type: physicochemical; conditions: PBS pH 7.4
Experimental: (§1) GSH reactivity assay was performed as described by Petri et al.; 500 μM solution of compound (PBS buffer pH 7.4, 10% MeCN, 250 μL) with 200 μM solution of indoprofen as internal standard were added to 10 mM GSH solution (dissolved in PBS buffer, 250 μL) in a 1:1 ratio. The final concentration was 250 μM compound, 100 μM indoprofen, 5 mM GSH and 5% MeCN (500 μL). The final mixture was analyzed by HPLC after 0, 1, 2, 4, 8, 12, 24, 48, and 72 h. The degradation kinetics were also studied using the method described in [24], except that pure PBS buffer was used instead of GSH solution. In this experiment, the final concentration of the mixture was 250 μM fragment, 100 μM indoprofen and 5% MeCN. The area under the curve (AUC) values were determined by integrating the HPLC spectra and then corrected with the internal standard.

[6] = HPLC-based GSH reactivity assay; type: physicochemical; conditions: 250 µM compound, 5 mM GSH, PBS pH 7.4
Experimental: as §1, with “The final concentration was 250 μM compound, 100 μM indoprofen, 5 mM GSH and 5% MeCN (500 μL).” left out, “In this experiment, the final concentration of the mixture was 250 μM fragment, 100 μM indoprofen and 5% MeCN.” left out

[7] = target: T3, human iCP (β5i) (Homo sapiens, UniProt P20618+P28062); assay: Screening of heterocyclic electrophilic compounds at 500 µM (β5i); type: biochemical; conditions: 30 min incubation
T3 construct: purchased Boston Biochem, Inc., Cambridge, MA, USA
Experimental: Screening of heterocyclic electrophilic compounds was performed at concentration of 500 µM in assay buffer (0.01% SDS, 50 mM Tris-HCl, 0.5 mM EDTA, pH 7.4). To 50 µL of each compound in buffer, 25 µL of 0.8 nM human iCP (Boston Biochem, Inc., Cambridge, MA, USA) was added. After 30 min incubation at 37 °C, the reaction was started by adding of 25 µL of […] Suc-LLVY-AMC (Bachem, Bubendorf, Switzerland), final concentration 25 µM). The reaction progress was recorded on BioTek Synergy HT microplate reader by monitoring fluorescence at 460 nm (λex = 360 nm) for 90 min at 37 °C. The initial linear ranges were used to calculate the velocity and determine the residual activity.

[8] = test system: GSH; assay: HPLC-based GSH reactivity assay; type: physicochemical; conditions: 5 mM glutathione (GSH) in PBS buffer; 250 µM compound, 5 mM GSH, PBS pH 7.4; read-out: Reactivity with GSH (HPLC-based assay), t1/2
Experimental: as §1, with “The final concentration was 250 μM compound, 100 μM indoprofen, 5 mM GSH and 5% MeCN (500 μL).” left out, “In this experiment, the final concentration of the mixture was 250 μM fragment, 100 μM indoprofen and 5% MeCN.” left out

Group efficiency (GE) [1]	SMILES	IC50 [2]	Stability in Buffer (HPLC-based assay) [5]	further results
0.92	N#Cc1nc2cccc(Cl)c2o1 [Compound 4]	10 ± 4.6 µM		
	CC(C)C[C@H](NC(=O)[C@H](CCc1ccccc1)NC(=O)CN1CCOCC1)C(=O)N[C@@H](Cc1ccccc1)C(=O)N[C@@H](CC(C)C)C(=O)[C@@]1(C)CO1 [carfilzomib]			β5 RA at 10 nM (control) [3]: 25 ± 1%
	N#Cc1nc2ccccc2o1 [Compound 1, benzoxazole-2-carbonitrile]	83 ± 6 µM		
0.96	N#Cc1nc2ccc(Cl)cc2o1 [Compound 3]	9.1 ± 4.5 µM		
	N#Cc1nc2ccc(N)cc2o1 [Compound 22]		stable ^c,d	Stability in Buffer (UV-Vis-based assay) [4]: stable ^c,d (relative absorbance difference for the compound in the buffer was below 0.1); Reactivity with GSH (HPLC-based assay), t1/2 [6]: < 3 min
	C=Cc1nccs1 [XXI, 2-vinylthiazole]			RA at 500 µM [%] (β5i) [7]: 5 ± 3%
	Cc1ccc2nc(C#N)oc2c1 [Compound 5]		low absorbance ^c/stable ^d	RA (%) at 10 µM, β5i [1]: 81 ± 4%; Reactivity with GSH (HPLC-based assay), t1/2 [6]: < 3 min
0.09	N#Cc1nc2cc(Cl)ccc2o1 [Compound 2]	67 ± 11 µM		
0.61	COc1cccc2nc(C#N)oc12 [Compound 9]		stable ^c,d	RA (%) at 10 µM, β5i [1]: 20 ± 6% ^f; RA (%) at 10 µM, β5i ([1]; listed as 7-OMe): 20%; Stability in Buffer (UV-Vis-based assay) [4]: stable ^c,d (relative absorbance difference for the compound in the buffer was below 0.1); half-life at 250 µM [8]: < 3 min
